Source: PubChem BioAssay (NCI)
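Method: 48-hour compound exposure of cells in 96-well plates, five concentrations, linear interpolation of endpoints. TGI is the concentration that stops growth completely.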

Legend:
Assay in all cases: NCI-60 cell line screen, 48 h
[1] = tested on: MDA-MB-435
[2] = tested on: SF-268 CNS
[3] = tested on: SNB-19 CNS
[4] = tested on: SW-620 colon
[5] = tested on: 786-0 renal
[6] = tested on: NCI-H23 lung
[7] = tested on: A498 renal
[8] = tested on: UO-31 renal
[9] = tested on: OVCAR-8 ovarian
[10] = tested on: SF-295 CNS
[11] = tested on: CCRF-CEM leukemia
[12] = tested on: LOX IMVI melanoma
[13] = tested on: RXF 393 renal
[14] = tested on: NCI-H226 lung

## O=C(/C=C/c1ccccc1Br)c1ccccc1
[1]
  TGI: 6.57 µM
[2]
  TGI: 10.5 µM
[3]
  TGI: 23.2 µM
[4]
  TGI: 3.02 µM
[5]
  TGI: 4.39 µM
[6]
  TGI: 12.6 µM
[7]
  TGI: 11.1 µM
[8]
  TGI: 11.3 µM
[9]
  TGI: 8.31 µM
[10]
  TGI: 23.4 µM
[11]
  TGI: 3.85 µM
[12]
  TGI: 2.64 µM
[13]
  TGI: 20.1 µM
[14]
  TGI: 36.6 µM

## COCCNC1CCC(=O)c2[nH]c3ccccc3c21 (stereo unspecified)
[1]
  TGI: > 100 µM
[2]
  TGI: > 100 µM
[3]
  TGI: > 100 µM
[4]
  TGI: > 100 µM
[5]
  TGI: > 100 µM
[6]
  TGI: > 100 µM
[7]
  TGI: > 100 µM
[8]
  TGI: > 100 µM
[9]
  TGI: > 100 µM
[10]
  TGI: > 100 µM
[11]
  TGI: > 100 µM
[12]
  TGI: > 100 µM
[13]
  TGI: > 100 µM
[14]
  TGI: > 100 µM

## C=C1C(=O)OC2/C=C(\C)CC/C=C(\C)CC(OC(=O)/C(=C/CO)CO)[C@@H]12 (stereo partly specified)
[1]
  TGI: 19 µM
[2]
  TGI: 45 µM
[3]
  TGI: > 85.7 µM
[4]
  TGI: 3.36 µM
[5]
  TGI: 11.5 µM
[6]
  TGI: 29.4 µM
[7]
  TGI: 34.6 µM
[8]
  TGI: 23.9 µM
[9]
  TGI: 4.07 µM
[10]
  TGI: > 100 µM
[11]
  TGI: 6.75 µM
[12]
  TGI: 31.1 µM
[13]
  TGI: 21.3 µM
[14]
  TGI: > 80.4 µM

## CN(C)c1cccc(/C=C(\C#N)c2ccccc2)c1
[1]
  TGI: 0.18 µM
[2]
  TGI: > 100 µM
[3]
  TGI: > 53.8 µM
[4]
  TGI: > 56 µM
[5]
  TGI: > 60.9 µM
[6]
  TGI: 45 µM
[7]
  TGI: 35.4 µM
[8]
  TGI: > 100 µM
[9]
  TGI: 40 µM
[10]
  TGI: 15.1 µM
[11]
  TGI: > 37.3 µM
[12]
  TGI: > 59.5 µM
[13]
  TGI: 4.51 µM
[14]
  TGI: 24.6 µM

## CC(C)(C)OC(=O)NC(Cc1ccc(OCc2ccccc2)cn1)C(N)=O (stereo unspecified)
[1]
  TGI: > 100 µM
[2]
  TGI: > 100 µM
[3]
  TGI: > 100 µM
[4]
  TGI: > 100 µM
[5]
  TGI: > 100 µM
[6]
  TGI: > 100 µM
[7]
  TGI: > 100 µM
[8]
  TGI: > 100 µM
[9]
  TGI: > 100 µM
[10]
  TGI: > 100 µM
[11]
  TGI: > 100 µM
[12]
  TGI: > 100 µM
[13]
  TGI: > 100 µM
[14]
  TGI: > 100 µM

## COc1ccc2c(c1)C1c3ccccc3CCN1CCC2 (stereo unspecified)
[1]
  TGI: 51.1 µM
[2]
  TGI: > 100 µM
[3]
  TGI: > 100 µM
[4]
  TGI: > 100 µM
[5]
  TGI: > 100 µM
[6]
  TGI: > 100 µM
[7]
  TGI: > 100 µM
[8]
  TGI: > 100 µM
[9]
  TGI: > 100 µM
[10]
  TGI: 54 µM
[11]
  TGI: > 100 µM
[12]
  TGI: > 100 µM
[13]
  TGI: > 100 µM
[14]
  TGI: > 100 µM

## CC(C)(C)CN1[C@@H]2CCCC[C@H]2N(CC(C)(C)C)P1(=O)C(O)/C=C/c1ccccc1 (stereo partly specified)
[1]
  TGI: > 100 µM
[2]
  TGI: > 100 µM
[3]
  TGI: > 100 µM
[4]
  TGI: > 100 µM
[5]
  TGI: > 100 µM
[6]
  TGI: > 100 µM
[7]
  TGI: 89.8 µM
[8]
  TGI: > 100 µM
[9]
  TGI: > 100 µM
[10]
  TGI: > 100 µM
[11]
  TGI: > 100 µM
[12]
  TGI: 37.3 µM
[13]
  TGI: > 100 µM
[14]
  TGI: 91.6 µM

## COc1cccc(N2C(=O)C3c4[nH]c5ccc(C)cc5c4C4CCC(C)CC4C3C2=O)c1 (stereo unspecified)
[1]
  TGI: > 100 µM
[2]
  TGI: > 100 µM
[3]
  TGI: > 100 µM
[4]
  TGI: > 100 µM
[5]
  TGI: > 100 µM
[6]
  TGI: > 100 µM
[7]
  TGI: > 100 µM
[8]
  TGI: > 100 µM
[9]
  TGI: > 100 µM
[10]
  TGI: > 100 µM
[11]
  TGI: > 100 µM
[12]
  TGI: > 100 µM
[13]
  TGI: 47.3 µM
[14]
  TGI: > 100 µM

## O=c1[nH]c2cc3[nH]c(=O)c(=O)[nH]c3cc2[nH]c1=O
[1]
  TGI: > 100 µM
[2]
  TGI: > 100 µM
[3]
  TGI: > 100 µM
[4]
  TGI: > 100 µM
[5]
  TGI: > 100 µM
[6]
  TGI: > 100 µM
[7]
  TGI: > 100 µM
[8]
  TGI: > 100 µM
[9]
  TGI: > 100 µM
[10]
  TGI: > 100 µM
[11]
  TGI: > 100 µM
[12]
  TGI: > 100 µM
[13]
  TGI: > 100 µM
[14]
  TGI: > 100 µM

## CC1=NN(C(=O)CC(=O)Nc2ccc(Cl)cc2)C(=O)C1N=Nc1ccc(S(=O)(=O)c2ccc(N=NC3C(=O)N(C(=O)CC(=O)Nc4ccc(Cl)cc4)N=C3C)cc2)cc1 (stereo unspecified)
[1]
  TGI: > 100 µM
[2]
  TGI: > 100 µM
[3]
  TGI: > 100 µM
[4]
  TGI: > 100 µM
[5]
  TGI: > 100 µM
[6]
  TGI: > 100 µM
[7]
  TGI: > 100 µM
[8]
  TGI: > 100 µM
[9]
  TGI: > 100 µM
[10]
  TGI: > 100 µM
[11]
  TGI: > 100 µM
[12]
  TGI: > 100 µM
[13]
  TGI: > 100 µM
[14]
  TGI: > 100 µM

## CNc1cccc2c1C(C)C[C@]1(C)C(=O)Nc3ccccc3[C@H]21 (stereo partly specified)
[1]
  TGI: 53.4 µM
[2]
  TGI: > 100 µM
[3]
  TGI: 54 µM
[4]
  TGI: > 100 µM
[5]
  TGI: 32.9 µM
[6]
  TGI: > 100 µM
[7]
  TGI: 43.6 µM
[8]
  TGI: 52.4 µM
[9]
  TGI: 39.1 µM
[10]
  TGI: 34.2 µM
[11]
  TGI: > 100 µM
[12]
  TGI: 33.7 µM
[13]
  TGI: 50 µM
[14]
  TGI: 61.4 µM

## CC(C)(C)Cc1cc(O)ccc1O
[1]
  TGI: > 100 µM
[2]
  TGI: > 100 µM
[3]
  TGI: > 100 µM
[4]
  TGI: > 100 µM
[5]
  TGI: > 100 µM
[6]
  TGI: > 100 µM
[7]
  TGI: > 100 µM
[8]
  TGI: > 100 µM
[9]
  TGI: > 100 µM
[10]
  TGI: > 100 µM
[11]
  TGI: 93.9 µM
[12]
  TGI: > 100 µM
[13]
  TGI: > 100 µM
[14]
  TGI: > 100 µM

## N#CCCN(CCCN(C(=O)Nc1ccc(NC(=O)N(CCCN(CCC#N)C(N)=O)c2ccccc2)cc1)c1ccccc1)C(N)=O
[1]
  TGI: > 100 µM
[2]
  TGI: > 100 µM
[3]
  TGI: > 100 µM
[4]
  TGI: > 100 µM
[5]
  TGI: > 100 µM
[6]
  TGI: > 100 µM
[7]
  TGI: > 100 µM
[8]
  TGI: > 100 µM
[9]
  TGI: > 100 µM
[10]
  TGI: > 100 µM
[11]
  TGI: > 100 µM
[12]
  TGI: > 100 µM
[13]
  TGI: > 100 µM
[14]
  TGI: > 100 µM

## CC(C(=O)O)C1Nc2ccccc2NC1=O (stereo unspecified)
[1]
  TGI: > 100 µM
[2]
  TGI: > 100 µM
[3]
  TGI: > 100 µM
[4]
  TGI: > 100 µM
[5]
  TGI: > 100 µM
[6]
  TGI: > 100 µM
[7]
  TGI: > 100 µM
[8]
  TGI: > 100 µM
[9]
  TGI: > 100 µM
[10]
  TGI: > 100 µM
[11]
  TGI: > 100 µM
[12]
  TGI: > 100 µM
[13]
  TGI: > 100 µM
[14]
  TGI: > 100 µM

## COC(=O)C1Cc2c([nH]c3ccccc23)-c2[nH]c3ccccc3c2CC(NC(C)=O)C(=O)NCC(=O)NCC(=O)N1 (stereo unspecified)
[1]
  TGI: > 100 µM
[2]
  TGI: > 100 µM
[3]
  TGI: > 100 µM
[4]
  TGI: > 100 µM
[5]
  TGI: > 100 µM
[6]
  TGI: > 100 µM
[7]
  TGI: > 100 µM
[8]
  TGI: > 100 µM
[9]
  TGI: > 100 µM
[10]
  TGI: > 100 µM
[11]
  TGI: > 100 µM
[12]
  TGI: > 100 µM
[13]
  TGI: > 100 µM
[14]
  TGI: > 100 µM

## N#CCN1CCN(CC#N)CCN(CC#N)CCN(CC#N)CC1
[1]
  TGI: > 100 µM
[2]
  TGI: > 100 µM
[3]
  TGI: > 100 µM
[4]
  TGI: > 100 µM
[5]
  TGI: > 100 µM
[6]
  TGI: > 100 µM
[7]
  TGI: > 100 µM
[8]
  TGI: > 100 µM
[9]
  TGI: > 100 µM
[10]
  TGI: > 100 µM
[11]
  TGI: > 100 µM
[12]
  TGI: > 100 µM
[13]
  TGI: > 100 µM
[14]
  TGI: > 100 µM

## O=S1(=O)c2ccccc2-c2nccc3ccnc1c23
[1]
  TGI: > 100 µM
[2]
  TGI: > 100 µM
[3]
  TGI: 91.3 µM
[4]
  TGI: > 100 µM
[5]
  TGI: > 100 µM
[6]
  TGI: 44 µM
[7]
  TGI: 84.4 µM
[8]
  TGI: 59 µM
[9]
  TGI: > 100 µM
[10]
  TGI: > 100 µM
[11]
  TGI: > 100 µM
[12]
  TGI: > 100 µM
[13]
  TGI: > 100 µM
[14]
  TGI: > 100 µM

## Nc1ncc(N)c(NCC2(CO)CC(CCc3ccccc3)C2)n1 (stereo unspecified)
[1]
  TGI: 22.9 µM
[2]
  TGI: > 43 µM
[3]
  TGI: 23.4 µM
[4]
  TGI: 23.9 µM
[5]
  TGI: 22.5 µM
[6]
  TGI: 20.8 µM
[7]
  TGI: 27.4 µM
[8]
  TGI: 15 µM
[9]
  TGI: 23.7 µM
[10]
  TGI: 24.5 µM
[11]
  TGI: 4.34 µM
[12]
  TGI: 16.6 µM
[13]
  TGI: 27.8 µM
[14]
  TGI: 18.4 µM

## CC(C)(C)OC(=O)NCC(=O)N(CCc1ccc(Cl)c(Cl)c1)CCN1CCCC1
[1]
  TGI: 28.4 µM
[2]
  TGI: 31.6 µM
[3]
  TGI: 34.4 µM
[4]
  TGI: 37.3 µM
[5]
  TGI: 28 µM
[6]
  TGI: 37.1 µM
[7]
  TGI: 32.8 µM
[8]
  TGI: 28.7 µM
[9]
  TGI: 35.8 µM
[10]
  TGI: 33.1 µM
[11]
  TGI: 28.4 µM
[12]
  TGI: 29.3 µM
[13]
  TGI: 29.7 µM
[14]
  TGI: 32.3 µM
